Source: patent publication US20100056606A1, “Combination therapy using budesonide and antisense oligonucleotide targeted to IL4-receptor alpha” (ISIS Pharmaceuticals, Inc., priority 2005, published 2010)

Columns and labels:
[1] = Lung concentration, lung half life and tolerability of inhaled oligonucleotide in mice
[2] = mouse, in vivo
IL-4R alpha protein = IL-4R alpha protein in lung cells by flow cytometry, acute model; format: in vivo, mouse
Experimental: (§1) Dendritic cells, eosinophils, macrophages and epithelial cells recovered from collagenase digested lung were analyzed for expression of IL-4R alpha protein by flow cytometry. […] A second experiment, in which mice were dosed with 10 μg/kg ISIS 231894, confirmed the efficacy of ISIS 231894 to decrease AHR and eosinophilia in the acute model.

OVA sensitized mice [3] = assay: Allergic rhinitis mouse model, intranasal administration; format: in vivo
Experimental: In a mouse model of allergic rhinitis, animals were sensitized intraperitoneally with alum-precipitated OVA on days 1, 5, 10 and 15. OVA diluted with saline was administered intranasally (25 μL of 500 μg OVA in each nare) daily, on days 18-22, 25-29, and 32-35. ISIS 231894 and budesonide were administered intranasally, with budesonide administration one hour before each intranasal OVA challenge. ISIS 231894 was administered on days 11, 13, 15, and one hour before each intranasal OVA challenge. Endpoints were evaluated on day 36 and included nasal mucus accumulation (nasal histopathology) nasal eosinophilia, neutrophilia (by nasal lavage analysis and microscopic eosinophil counts in epithelial tissue) and allergic symptoms (numbers of sneezes and nose-rubs observed over a fixed time period).

OVA sensitized mice [4] = assay: Mouse model of allergic inflammation, rechallenge model (AHR/Penh, BAL eosinophils, cytokines); format: in vivo
Experimental: (§2) In the mouse model of allergic inflammation, mice are sensitized and challenged with aerosolized chicken ovalbumin (OVA). Airway responsiveness is assessed by inducing airflow obstruction using a noninvasive method whereby unrestrained conscious OVA sensitized mice are placed into the main chamber of a plethysmograph (Buxco Electronics, Inc. Troy, N.Y.) and challenged with aerosolized methacholine. Pressure difference between this chamber and a reference chamber is used to extrapolate minute volume, breathing frequency and enhanced pause (Penh). Penh is a dimensionless parameter that is a function of total pulmonary airflow (i.e. the sum of the airflow in the upper and lower respiratory tracts) during the respiratory cycle of a mouse and is […] when airflow is greater. This parameter closely correlates with lung resistance as measured by traditional, invasive techniques using ventilated animals (Hamelmann et al., 1997, Am. J. Respir. Crit. Care Med. 156:766-775).
The rechallenge model of allergic inflammation includes a second series of nebulized OVA challenges on days 66 and 67 in addition to the sensitization and challenge steps of the acute model. This model allows for the evaluation of the target's role in a recall response, as opposed to its role as an initiator molecule. In the rechallenge model, mice were treated with 10, 100 or 500 μg/kg of either ISIS 231894 or the mismatch control oligonucleotide on days 52, 54, 56, 59 and 61, subsequent to the onset and resolution of the OVA-induced acute inflammatory response, delivered by nose only inhalation. The study endpoints were similar to those in the acute model, and included Penh response (i.e. AHR reduction), inflammatory cells and cytokines in BAL (determined by ELISA), mucus accumulation (as determined by periodic acid-Schiff base [PAS] staining in lungs), lung histology and IL-4R alpha protein reduction in lung epithelial and inflammatory cells (as determined by flow cytometry). The results are shown below in Tables 5 and 6.

OVA sensitized mice [5] = assay: Ovalbumin induced allergic inflammation, acute model (AHR/Penh, BAL eosinophils); format: in vivo, mouse; settings: for % Eosinophils (BAL) / Penh (100 mg/mL methacholine): day 28
Experimental: as §2
The mouse model of allergic inflammation was used to test the efficacy of an inhaled antisense oligonucleotide targeted to mouse IL-4R alpha. A mismatched IL-4R alpha oligonucleotide (mismatch control oligonucleotide) was used as a negative control. Male Balb/c mice 8-10 weeks old (Charles River Laboratory, Taconic Farms, N.Y.) were maintained in micro-isolator cages housed in a specific pathogen free (SPF) facility. The sentinel cages within the animal colony surveyed negative for viral antibodies and the presence of known mouse pathogens.
For the acute model of allergic inflammation, mice were sensitized with 20 μg of alum-precipitated OVA was injected intraperitoneally on days 0 and 14. On days 24, 25 and 26, animals were exposed for 20 minutes to 1% OVA (in saline) by ultrasonic nebulization. On days 17, 19, 21, 24 and 26 animals were dosed with vehicle alone (saline), 1 μg/kg or 10 μg/kg of ISIS 231894 or the mismatch control oligonucleotide. Oligonucleotides or vehicle were suspended in 0.9% sodium chloride and delivered via inhalation using a nose-only aerosol delivery exposure system. A Lovelace nebulizer set at a flow rate of 1.4 liter per minute feeding into a total flow rate of 10 liters per minute was used to deliver the oligonucleotide. The exposure chamber was equilibrated with an oligonucleotide aerosol solution for 5 minutes before mice were placed in a restraint tube attached to the chamber. Restrained mice were treated for a total of 10 minutes. Analysis was performed on day 28.
as §1

[6] = Table 11, 0.01 mg/kg intranasal

## ISIS 231894: lead antisense oligonucleotide targeted to mouse IL-4R alpha; CCGCTGTTCTCAGGTGACAT; SEQ ID NO: 24; 2'-MOE gapmer, phosphorothioate (all phosphorothioate, sugars by position and methylation of C not given here; 2'-MOE gapmer)
[1]; mice with well established allergen-induced pulmonary inflammation
  effect of once weekly dosing on AHR and airway inflammation, in words: reduced AHR and airway inflammation
[1]; mice, doses up to 1 mg/kg
  tolerability of intrapulmonary aerosol doses: well-tolerated
[2]
  half life in the lung: 48 to 96 h
IL-4R alpha protein
  IL-4R alpha protein in dendritic, epithelial and mixed eosinophil/macrophage lung cells, in words: significant reduction
OVA sensitized mice [3]; [6]
  % Nasal lavage eosinophils: 12%
  % Nasal lavage neutrophils: 16%
  Nasal rubs: 0.8 per 5 min
  Sneezes: 2.5 per 5 min
  Tissue eosinophils: 438 per mm^2
OVA sensitized mice [3]; Table 11, 0.1 mg/kg intranasal
  % Nasal lavage eosinophils: 2%
  % Nasal lavage neutrophils: 5%
  Nasal rubs: 0.3 per 5 min
  Sneezes: 1.9 per 5 min
  Tissue eosinophils: 240 per mm^2
OVA sensitized mice [3]; Table 11, 1 mg/kg intranasal
  % Nasal lavage eosinophils: 5%
  % Nasal lavage neutrophils: 13%
  Nasal rubs: 0.5 per 5 min
  Sneezes: 1.0 per 5 min
  Tissue eosinophils: 101 per mm^2
OVA sensitized mice [3]; Table 11, 10 mg/kg intranasal
  % Nasal lavage eosinophils: 9%
  % Nasal lavage neutrophils: 14%
  Nasal rubs: 1.1 per 5 min
  Sneezes: 4.8 per 5 min
  Tissue eosinophils: 298 per mm^2
OVA sensitized mice [3]; allergic rhinitis model, intranasal, alone and in combination
  nasal eosinophilia, neutrophilia and allergic symptoms (sneezes and nose rubs), in words: reduce nasal eosinophilia, neutrophilia and allergic symptoms
OVA sensitized mice [4]
  percentage of eosinophils in BAL fluid vs mismatch control, in words: significantly reduced
OVA sensitized mice [4]; 10 μg and 100 μg doses
  lung IL-5 mRNA, in words: inhibited
OVA sensitized mice [4]; 10 μg/kg inhaled
  % Eosinophils (BAL): 22%
  Penh (100 mg/mL methacholine): 3
OVA sensitized mice [4]; 100 μg/kg inhaled
  % Eosinophils (BAL): 18%
  Penh (100 mg/mL methacholine): 3.5
OVA sensitized mice [4]; 500 μg/kg inhaled
  % Eosinophils (BAL): 15%
  Penh (100 mg/mL methacholine): 3.5
OVA sensitized mice [4]; all three doses (10, 100, 500 μg/kg)
  methacholine-induced AHR (Penh) vs vehicle control, in words: significant reduction
OVA sensitized mice [4]; doses of 100 μg and 500 μg, ELISA
  cytokines KC, MCP-1, IL-5 and IL-13 in BAL fluid vs vehicle control, in words: significantly reduced expression
OVA sensitized mice [5]
  eosinophil infiltration in BAL fluid, in words: significant decrease
  pulmonary function: lung resistance and compliance, in words: Significant improvement
OVA sensitized mice [5]; 1 μg/kg inhaled
  % Eosinophils (BAL): 35%
  Penh (100 mg/mL methacholine): 6
OVA sensitized mice [5]; 10 μg/kg inhaled
  % Eosinophils (BAL): 35%
  Penh (100 mg/mL methacholine): 4.5
OVA sensitized mice [5]; 1 and 10 μg/kg inhaled
  methacholine-induced AHR (Penh, whole body plethysmography), in words: significant, dose dependent suppression
